Each structure is given as a SMILES string.

Assay [1] deals with T1, human recombinant HDAC1 (Homo sapiens, UniProt Q13547).
T1 construct: purchased Enzo Life Science BML-SE456
Description: HDAC1 enzyme activity inhibition assay (HDAC Fluorimetric Drug Discovery Kit). Format: biochemical. To be noted: human recombinant HDAC1, Fluor de Lys substrate 10 μM, 30° C. 60 minutes. Put shortly:
(§1)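 Human recombinant HDAC1 or HDAC6 (0.3 μg) reacted with 10 μM Fluor de Lys-SIRT1 substrate and 5-fold compound dilutions for 60 min at 30 °C. Developer II added for 30 min, fluorescence read at Ex 360/Em 460; IC50 calculated from the readings.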

In assay [2] the target is T2, human recombinant HDAC6 (Homo sapiens, UniProt Q9UBN7).
T2 construct: purchased Calbiochem 382180
T2 sequence (Q9UBN7 1-1215): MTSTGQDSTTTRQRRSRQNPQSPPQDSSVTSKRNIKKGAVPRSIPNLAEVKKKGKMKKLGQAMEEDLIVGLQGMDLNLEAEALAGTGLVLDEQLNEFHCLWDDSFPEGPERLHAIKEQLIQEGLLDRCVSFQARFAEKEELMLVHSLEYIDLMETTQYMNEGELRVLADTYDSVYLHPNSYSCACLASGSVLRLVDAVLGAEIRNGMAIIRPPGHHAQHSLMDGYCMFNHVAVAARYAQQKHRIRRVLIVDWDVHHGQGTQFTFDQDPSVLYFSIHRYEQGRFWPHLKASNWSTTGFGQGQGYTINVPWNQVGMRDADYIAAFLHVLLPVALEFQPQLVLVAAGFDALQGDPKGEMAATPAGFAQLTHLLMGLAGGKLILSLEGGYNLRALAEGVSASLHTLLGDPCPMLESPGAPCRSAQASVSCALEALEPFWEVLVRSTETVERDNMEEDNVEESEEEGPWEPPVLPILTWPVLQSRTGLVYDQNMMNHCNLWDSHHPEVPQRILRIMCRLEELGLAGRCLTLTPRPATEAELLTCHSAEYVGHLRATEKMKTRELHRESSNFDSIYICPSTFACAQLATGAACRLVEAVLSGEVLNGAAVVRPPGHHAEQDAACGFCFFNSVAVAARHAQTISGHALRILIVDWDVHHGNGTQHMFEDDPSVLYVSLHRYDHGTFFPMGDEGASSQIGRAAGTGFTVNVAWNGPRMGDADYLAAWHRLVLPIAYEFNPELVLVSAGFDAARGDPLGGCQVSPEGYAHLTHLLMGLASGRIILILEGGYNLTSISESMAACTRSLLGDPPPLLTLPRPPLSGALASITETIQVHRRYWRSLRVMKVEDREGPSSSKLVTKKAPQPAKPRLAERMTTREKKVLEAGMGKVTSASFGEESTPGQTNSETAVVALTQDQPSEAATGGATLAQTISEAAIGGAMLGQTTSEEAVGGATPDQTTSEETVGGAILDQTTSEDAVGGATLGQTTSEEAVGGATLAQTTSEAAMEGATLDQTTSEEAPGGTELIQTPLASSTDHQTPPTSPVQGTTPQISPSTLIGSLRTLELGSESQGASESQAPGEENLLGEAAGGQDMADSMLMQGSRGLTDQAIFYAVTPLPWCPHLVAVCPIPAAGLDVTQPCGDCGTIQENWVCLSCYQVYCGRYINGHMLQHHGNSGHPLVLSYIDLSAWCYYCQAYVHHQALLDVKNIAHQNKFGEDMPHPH
The assay can be described thus: HDAC6 enzyme activity inhibition assay (HDAC Fluorimetric Drug Discovery Kit). Particulars: for HDAC6 selectivity (fold): HDAC6 over HDAC1; for IC50: human recombinant HDAC6, same protocol as HDAC1, read-out: HDAC6. Format: biochemical. Put shortly:
as §1

T1 sequence (Q13547 whole entry): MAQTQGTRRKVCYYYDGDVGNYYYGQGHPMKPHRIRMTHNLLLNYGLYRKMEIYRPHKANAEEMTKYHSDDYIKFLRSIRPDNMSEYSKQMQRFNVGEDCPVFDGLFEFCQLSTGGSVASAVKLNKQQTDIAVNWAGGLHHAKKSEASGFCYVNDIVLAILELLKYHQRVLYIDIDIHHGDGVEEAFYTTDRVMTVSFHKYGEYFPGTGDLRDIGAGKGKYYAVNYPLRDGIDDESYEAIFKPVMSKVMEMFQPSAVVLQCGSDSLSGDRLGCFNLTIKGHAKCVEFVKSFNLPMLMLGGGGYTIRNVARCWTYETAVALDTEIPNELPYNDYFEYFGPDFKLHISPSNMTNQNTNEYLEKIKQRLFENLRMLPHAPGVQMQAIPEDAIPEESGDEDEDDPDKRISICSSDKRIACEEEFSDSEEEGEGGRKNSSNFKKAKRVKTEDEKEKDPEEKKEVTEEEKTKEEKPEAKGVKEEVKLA

For `CN1CCN(C(=O)N(Cc2ccc(-c3nnc(C(F)F)o3)cc2F)c2cccc3c2cnn3C)CC1` [Compound 21709, N-(4-(5-(difluoromethyl)-1,3,4-oxadiazol-2-yl)-2-fluorobenzyl)-4-methyl-N-(1-methyl-1H-indazol-4-yl)piperazine-1-carboxamide], the IC50 in assay [1] was found to be 58.5 µM; in assay [2], 0.026 µM. Besides, the “HDAC6 selectivity (fold)” value in assay [2] was 2255 fold.

Regarding `Cn1ncc2c(N(Cc3ccc(-c4nnc(C(F)F)o4)cc3F)C(=O)N3CCS(=O)(=O)CC3)cccc21` [Compound 21710, N-(4-(5-(difluoromethyl)-1,3,4-oxadiazol-2-yl)-2-fluorobenzyl)-N-(1-methyl-1H-indazol-4-yl)thiomorpholine-4-carboxamide 1,1-dioxide], the IC50 in assay [1] amounted to 67.7 µM. Besides, in assay [2], the “HDAC6 selectivity (fold)” value is 2651 fold and the IC50 amounted to 0.026 µM.

For `Cn1ncc2ccc(N(Cc3ccc(-c4nnc(C(F)F)o4)cc3F)C(=O)N3CCOCC3)cc21` [Compound 21724, N-(4-(5-(Difluoromethyl)-1,3,4-oxadiazol-2-yl)-2-fluorobenzyl)-N-(1-methyl-1H-indazol-6-yl)morpholine-4-carboxamide], the IC50 in assay [1] amounted to 20.7 µM; in assay [2], 0.028 µM. For the same molecule, in assay [2], the “HDAC6 selectivity (fold)” value stood at 736 fold.

For `CCN1CCN(C(=O)N(Cc2ccc(-c3nnc(C(F)F)o3)cc2F)c2ccc3cnn(C)c3c2)CC1` [Compound 21735, N-(4-(5-(difluoromethyl)-1,3,4-oxadiazol-2-yl)-2-fluorobenzyl)-4-ethyl-N-(1-methyl-1H-indazol-6-yl)piperazine-1-carboxamide], the IC50 in assay [1] worked out at 19.1 µM. Besides, in assay [2], the “HDAC6 selectivity (fold)” value is on record as 662 fold and the IC50 was found to be 0.029 µM.

In the case of `CN(C)[C@@H]1CCN(C(=O)N(Cc2ccc(-c3nnc(C(F)F)o3)cc2F)c2ccc3cnn(C)c3c2)C1` [Compound 21736, (R)—N-(4-(5-(difluoromethyl)-1,3,4-oxadiazol-2-yl)-2-fluorobenzyl)-3-(dimethylamino)-N-(1-methyl-1H-indazol-6-yl)pyrrolidine-1-carboxamide], the IC50 in assay [1] worked out at 17.7 µM. In addition, in assay [2], the “HDAC6 selectivity (fold)” value was 432 fold and the IC50 stood at 0.041 µM.

With `O=C(N1CCS(=O)(=O)CC1)N(Cc1ccc(-c2nnc(C(F)F)o2)cc1F)c1ccccc1F` [Compound 21808, N-(4-(5-(difluoromethyl)-1,3,4-oxadiazol-2-yl)-2-fluorobenzyl)-N-(2-fluorophenyl)thiomorpholine-4-carboxamide 1,1-dioxide], the IC50 in assay [1] was found to be 42.6 µM. For the same molecule, in assay [2], the “HDAC6 selectivity (fold)” value worked out at 2023 fold and the IC50 stood at 0.021 µM.

Take `O=C(N1CCS(=O)(=O)CC1)N(Cc1ccc(-c2nnc(C(F)F)o2)cc1F)c1cccc(Cl)c1` [Compound 21810, N-(3-chlorophenyl)-N-(4-(5-(difluoromethyl)-1,3,4-oxadiazol-2-yl)-2-fluorobenzyl)thiomorpholine-4-carboxamide 1,1-dioxide]: in assay [1], the IC50 amounted to 15.7 µM. In assay [2], the “HDAC6 selectivity (fold)” value was found to be 883 fold and the IC50 came out at 0.018 µM.

Consider `O=C(N1CCS(=O)(=O)CC1)N(Cc1ccc(-c2nnc(C(F)F)o2)cn1)c1ccc(-c2ccncc2)cc1` [Compound 21823, N-((5-(5-(difluoromethyl)-1,3,4-oxadiazol-2-yl)pyridin-2-yl)methyl)-N-(4-(pyridin-4-yl)phenyl)thiomorpholine-4-carboxamide 1,1-dioxide], for which the IC50 in assay [1] stood at 20.8 µM. In assay [2], the “HDAC6 selectivity (fold)” value was 370 fold and the IC50 was found to be 0.056 µM.

`O=C(N1CCS(=O)(=O)CC1)N(Cc1ccc(-c2nnc(C(F)F)o2)cn1)c1ccc(-c2cccnc2)cc1` [Compound 21824, N-((5-(5-(difluoromethyl)-1,3,4-oxadiazol-2-yl)pyridin-2-yl)methyl)-N-(4-(pyridin-3-yl)phenyl)thiomorpholine-4-carboxamide 1,1-dioxide]: the IC50 in assay [1] came to 17.7 µM. Besides, in assay [2], the “HDAC6 selectivity (fold)” value worked out at 563 fold and the IC50 is 0.031 µM.

On to `O=C(N1CCS(=O)(=O)CC1)N(Cc1ccc(-c2nnc(C(F)F)o2)cn1)c1ccc(F)cc1` [Compound 21829, N-((5-(5-(difluoromethyl)-1,3,4-oxadiazol-2-yl)pyridin-2-yl)methyl)-N-(4-fluorophenyl)thiomorpholine-4-carboxamide 1,1-dioxide], for which the IC50 in assay [1] was 47 µM. For the same molecule, in assay [2], the “HDAC6 selectivity (fold)” value was 1542 fold and the IC50 was found to be 0.031 µM.

Regarding `O=C(N1CCS(=O)(=O)CC1)N(Cc1ccc(-c2nnc(C(F)F)o2)cn1)c1cccc(F)c1` [Compound 21830, N-((5-(5-(difluoromethyl)-1,3,4-oxadiazol-2-yl)pyridin-2-yl)methyl)-N-(3-fluorophenyl)thiomorpholine-4-carboxamide 1,1-dioxide], in assay [1], the IC50 is 40.9 µM. In assay [2], the “HDAC6 selectivity (fold)” value worked out at 1298 fold and the IC50 was 0.032 µM.

Turning to `O=C(N1CCS(=O)(=O)CC1)N(Cc1ccc(-c2nnc(C(F)F)o2)cn1)c1ccc(Cl)cc1` [Compound 21831, N-(4-chlorophenyl)-N-((5-(5-(difluoromethyl)-1,3,4-oxadiazol-2-yl)pyridin-2-yl)methyl)thiomorpholine-4-carboxamide 1,1-dioxide], in assay [1], the IC50 was found to be 64.4 µM. Also, in assay [2], the “HDAC6 selectivity (fold)” value was determined as 1538 fold and the IC50 turned out to be 0.042 µM.

For the molecule `O=C(N1CCOCC1)N(Cc1ccc(-c2nnc(C(F)F)o2)cn1)c1ccc(F)cc1` [Compound 21839, N-((5-(5-(difluoromethyl)-1,3,4-oxadiazol-2-yl)pyridin-2-yl)methyl)-N-(4-fluorophenyl) morpholine-4-carboxamide], the IC50 in assay [1] is 56.7 µM. Moreover, in assay [2], the “HDAC6 selectivity (fold)” value turned out to be 1689 fold and the IC50 amounted to 0.034 µM.

`O=C(N1CCOCC1)N(Cc1ccc(-c2nnc(C(F)(F)F)o2)cn1)c1ccc(F)cc1` [Compound 21840, N-(4-fluorophenyl)-N-((5-(5-(trifluoromethyl)-1,3,4-oxadiazol-2-yl)pyridin-2-yl)methyl) morpholine-4-carboxamide]: the IC50 in assay [1] is 31.9 µM. In assay [2], the “HDAC6 selectivity (fold)” value is listed as 170 fold and the IC50 came out at 0.188 µM.

As to `O=C(N1CCOCC1)N(Cc1ccc(-c2nnc(C(F)(F)F)o2)cc1F)c1ccc(F)cc1` [Compound 21842, N-(2-fluoro-4-(5-(trifluoromethyl)-1,3,4-oxadiazol-2-yl)benzyl)-N-(4-fluorophenyl)morpholine-4-carboxamide], the IC50 turned out to be 25.2 µM in assay [1] and 0.187 µM in assay [2]. Further, the “HDAC6 selectivity (fold)” value in assay [2] is 135 fold.

On to `O=C(N1CCOCC1)N(Cc1ccc(-c2nnc(C(F)(F)F)o2)cn1)c1cccc(F)c1` [Compound 21844, N-(3-fluorophenyl)-N-((5-(5-(trifluoromethyl)-1,3,4-oxadiazol-2-yl)pyridin-2-yl)methyl) morpholine-4-carboxamide], for which the IC50 in assay [1] amounted to 32.3 µM; in assay [2], 0.08 µM. The “HDAC6 selectivity (fold)” value in assay [2] amounted to 404 fold.

For `O=C(N1CCOCC1)N(Cc1ccc(-c2nnc(C(F)F)o2)cc1F)c1cccc(F)c1` [Compound 21845, N-(4-(5-(difluoromethyl)-1,3,4-oxadiazol-2-yl)-2-fluorobenzyl)-N-(3-fluorophenyl)morpholine-4-carboxamide], the IC50 in assay [1] came to 62.3 µM. In assay [2], the “HDAC6 selectivity (fold)” value was determined as 1919 fold and the IC50 came out at 0.032 µM.

`O=C(N1CCOCC1)N(Cc1ccc(-c2nnc(C(F)(F)F)o2)cc1F)c1cccc(F)c1` [Compound 21846, N-(2-fluoro-4-(5-(trifluoromethyl)-1,3,4-oxadiazol-2-yl)benzyl)-N-(3-fluorophenyl)morpholine-4-carboxamide]: the values for the IC50 in assay [1] and in assay [2] were 21.3 µM and 0.123 µM, respectively. Further, the “HDAC6 selectivity (fold)” value in assay [2] amounted to 173 fold.

The record behind these values is patent US10717716B2, “1,3,4-oxadiazole derivative compounds as histone deacetylase 6 inhibitor, and the pharmaceutical composition comprising the same” (Chong Kun Dang Pharmaceutical Corp., priority 2015, dated 2020).
